In patent US20230322822A1, “ARYL PHOSPHOROUS OXIDE COMPOUNDS AND USE THEREOF” (Chengdu Di'ao Jiuhong Pharmaceutical Factory, priority 2020, published 2023):
Read-outs that look alike come from different tables or passages of the source.

Tests used:
[1] = test system: NCI-H1975 EGFR DTC(C797S/T790M/Del19) cells; assay: In vivo pharmacodynamic study, subcutaneously implanted tumor NCI-H1975 EGFR DTC(C797S/T790M/Del19) (two-sided model); design: species or system BALB/c nude mouse
Procedure: Passages were treated twice a week. When the cell number reached requirement, the cells were collected, counted and inoculated.
Administration mode and frequency: oral gavage was carried out with an administration volume of 10 mL/kg, and the model group was administered with the same volume of solvent. The administration was once per day and continuously carried out for 16 days.
(§1) General conditions such as spirit, activity, food intake and the like of the mice were observed every day, and the weight was measured thrice every week; the short diameter (a) and the long diameter (b) of each mouse tumor were measured thrice a week with a vernier caliper, and the tumor volume was calculated according to the formula (a^2×b)/2. The Relative Tumor Volume (RTV) was calculated from the measured tumor volume, wherein RTV=Vt/V0, wherein V0 was the tumor volume at random grouping (i.e., d0) and Vt was the tumor volume at each measurement (i.e., dn). The relative tumor proliferation rate of the evaluation index of the anti-tumor activity was calculated according to the following formula: relative tumor proliferation rate T/C (%): […]
Note: TRTV: treatment group RTV; CRTV model control group RTV.

[2] = test system: BaF3 EGFR-DTC(C797S/T790M/Del19) cells; assay: In-vivo pharmacodynamic study, transplanted tumor model of BaF3 EGFR-DTC(C797S/T790M/Del19) cells in nude mice; design: species or system BALB/c nude mice
Procedure: The models used in this test were subcutaneous transplanted tumor models of engineered BaF3 EGFR-DTC(C797S/T790M/Del19) cells in BALB/c nude mice. The engineered BaF3 cells were cultured in vitro suspension. […] Passages were treated twice a week. When the cell number reached requirement, the cells were collected, counted and inoculated. 0.2 mL (10^6) cells (added with matrigel, 1:1 by volume) were subcutaneously inoculated in the right back of each mouse, and divided into groups for administration with 6 mice per group when the mean tumor volume reached 109 mm^3.
Administration mode and frequency: Oral gavage was carried out with an administration volume of 10 mL/kg, and the model group was administered with the same volume of solvent. The administration was once per day and continuously carried out for 14 days.
as §1
(Note: TRTV: treatment group RTV; CRTV: model control group RTV. According to the therapeutic effect evaluation standard in the Technical Guidelines for Non-clinical Research of Cytotoxic Anti-tumor Drugs Issued by National Medical Products Administration of China, the value (T/C %≤40%) was effective).

[3] = test system: BaF3 EML-4-ALK-L1196M cell line; assay: Cell anti-proliferation test 4 (CCK-8), BaF3 EML-4-ALK-L1196M; type: cell-based; conditions: Ba/F3 EML4-ALK-L1196M, BaF3 EML-4-ALK-L1196M cells, CCK-8, 72 hours
Procedure: BaF3 EML-4-ALK-L1196M cell line, brand: KYinno, article number: KC-0102
Cell Counting Kit-8 (CCK-8), brand: Targetmol, article number: C0005
10 μL of the compound diluted in gradient was added to the cell plate to give final concentrations of the compounds as 500, 166.67, 55.56, 18.52, 6.17, 2.06, 0.69, 0.23 and 0.08 nM. • d.

[4] = target: EGFR-WT (Homo sapiens (Human), UniProt P00533); assay: Enzymatic activity test (ADP-Glo) EGFR-WT; type: biochemical; conditions: kinase
Procedure: • 1. […] Test information:
To assess the effect of compounds on the activity of wild-type and mutant EGFR kinases, kinase activity was tested by measuring ATP consumption in an enzymatic reaction using an ADP-Glo (Promega Corporation) kit. Samples to be tested were dissolved in DMSO and diluted in a gradient. In a microplate, an EGFR kinase, a reaction buffer (containing Tris-HCl with a pH of 7.5, MgCl2, DTT and BSA), a kinase substrate Poly(Glu4, Tyr1) and a sample (a total volume of 20 μL per well) were added per well, while a blank control (no enzyme and sample) and a negative control (no sample) were set up; incubated for 15 minutes at 23° C.; added with 5 μL of ATP, and reacted at 23° C. for 60 minutes; added with ADP-Glo Reagent, and continuously reacted for 40 minutes at room temperature to inactivate the redundant ATP; then, added with a Kinase Detection Reagent, and reacted at room temperature for 30 minutes, then the chemiluminescence intensity L of each well was measured. […] IC50 values were calculated according to the above calculation using 4Parameter Logistic Model in XLfit software. • 3.

[5] = 20 mg/kg oral gavage once per day
[6] = 40 mg/kg oral gavage once per day
[7] = 25 mg/kg oral gavage once per day
[8] = 50 mg/kg oral gavage once per day

Sequence of EGFR-WT (P00533 25-1210): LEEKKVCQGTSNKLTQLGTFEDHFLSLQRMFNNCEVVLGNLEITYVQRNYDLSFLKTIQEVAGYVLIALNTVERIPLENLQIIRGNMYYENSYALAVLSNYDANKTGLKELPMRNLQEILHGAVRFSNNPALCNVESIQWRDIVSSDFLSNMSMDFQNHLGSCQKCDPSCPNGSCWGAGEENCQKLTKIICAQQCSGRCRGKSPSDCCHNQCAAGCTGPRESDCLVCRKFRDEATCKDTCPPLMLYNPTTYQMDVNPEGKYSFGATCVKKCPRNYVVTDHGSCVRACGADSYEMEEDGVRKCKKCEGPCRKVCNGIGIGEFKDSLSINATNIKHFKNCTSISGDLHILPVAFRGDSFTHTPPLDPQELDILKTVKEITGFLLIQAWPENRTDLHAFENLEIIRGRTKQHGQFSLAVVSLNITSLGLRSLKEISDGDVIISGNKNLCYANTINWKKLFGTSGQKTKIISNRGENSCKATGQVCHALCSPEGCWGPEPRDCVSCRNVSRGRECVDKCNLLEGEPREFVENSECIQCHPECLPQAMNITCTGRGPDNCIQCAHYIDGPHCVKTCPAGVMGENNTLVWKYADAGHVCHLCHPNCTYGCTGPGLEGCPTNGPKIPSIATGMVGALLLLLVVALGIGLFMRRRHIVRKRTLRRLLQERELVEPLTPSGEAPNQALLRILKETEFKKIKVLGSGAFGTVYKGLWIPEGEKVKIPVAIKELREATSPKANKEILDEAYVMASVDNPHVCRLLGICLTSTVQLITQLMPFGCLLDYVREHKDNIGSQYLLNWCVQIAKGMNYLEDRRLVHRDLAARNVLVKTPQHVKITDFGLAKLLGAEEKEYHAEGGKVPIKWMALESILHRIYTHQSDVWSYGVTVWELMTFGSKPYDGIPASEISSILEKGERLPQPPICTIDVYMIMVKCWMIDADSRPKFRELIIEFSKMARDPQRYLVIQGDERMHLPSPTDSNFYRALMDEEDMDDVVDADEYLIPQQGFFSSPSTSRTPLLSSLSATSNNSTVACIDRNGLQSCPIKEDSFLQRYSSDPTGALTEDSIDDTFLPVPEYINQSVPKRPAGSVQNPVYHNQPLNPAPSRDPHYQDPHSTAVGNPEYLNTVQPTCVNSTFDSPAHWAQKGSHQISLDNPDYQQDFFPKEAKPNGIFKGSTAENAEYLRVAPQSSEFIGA

**Q.** How did the “NCI-H1975 EGFR DTC(C797S/T790M/Del19) Tumor volume Day 0” value [1, 5] turn out when `COc1cc(N2CCC(N3CCN(C)CC3)CC2)c(C)cc1Nc1ncc(Br)c(Nc2ccc(C)cc2P(C)(C)=O)n1` [Compound 2] was run?
**A.** Its value is 110 mm^3.

**Q.** What about the “NCI-H1975 EGFR DTC(C797S/T790M/Del19) T/C Day 2” value [1, 5] of the same compound?
**A.** Its value is 75.84%.

**Q.** And the “NCI-H1975 EGFR DTC(C797S/T790M/Del19) Tumor volume Day 2” value [1, 5]?
**A.** The value was 147 mm^3.

**Q.** What about the “NCI-H1975 EGFR DTC(C797S/T790M/Del19) T/C Day 4” value [1, 5] of the same compound?
**A.** The value was 66.68%.

**Q.** What about the “NCI-H1975 EGFR DTC(C797S/T790M/Del19) Tumor volume Day 4” value [1, 5] of the same compound?
**A.** Its value is 235 mm^3.

**Q.** What about the “NCI-H1975 EGFR DTC(C797S/T790M/Del19) T/C Day 6” value [1, 5] of the same compound?
**A.** Its value is 56.63%.

**Q.** What about the “NCI-H1975 EGFR DTC(C797S/T790M/Del19) Tumor volume Day 6” value [1, 5] of the same compound?
**A.** Its value is 321 mm^3.

**Q.** What about the “NCI-H1975 EGFR DTC(C797S/T790M/Del19) T/C Day 9” value [1, 5] of the same compound?
**A.** The value was 43.36%.

**Q.** And the “NCI-H1975 EGFR DTC(C797S/T790M/Del19) Tumor volume Day 9” value [1, 5]?
**A.** The value was 480 mm^3.

**Q.** What about the “NCI-H1975 EGFR DTC(C797S/T790M/Del19) T/C Day 11” value [1, 5] of the same compound?
**A.** The value was 40.68%.

**Q.** And the “NCI-H1975 EGFR DTC(C797S/T790M/Del19) Tumor volume Day 11” value [1, 5]?
**A.** The value was 583 mm^3.

**Q.** What about the “NCI-H1975 EGFR DTC(C797S/T790M/Del19) T/C Day 13” value [1, 5] of the same compound?
**A.** Its value is 40.09%.

**Q.** And the “NCI-H1975 EGFR DTC(C797S/T790M/Del19) Tumor volume Day 13” value [1, 5]?
**A.** Its value is 720 mm^3.

**Q.** And the “NCI-H1975 EGFR DTC(C797S/T790M/Del19) T/C Day 16” value [1, 5]?
**A.** The value was 37.95%.

**Q.** And the “NCI-H1975 EGFR DTC(C797S/T790M/Del19) Tumor volume Day 16” value [1, 5]?
**A.** Its value is 1065 mm^3.

**Q.** What about the “NCI-H1975 EGFR DTC(C797S/T790M/Del19) Tumor volume Day 0” value [1, 6] of the same compound?
**A.** The value was 113 mm^3.

**Q.** And the “NCI-H1975 EGFR DTC(C797S/T790M/Del19) T/C Day 2” value [1, 6]?
**A.** The value was 67.13%.

**Q.** And the “NCI-H1975 EGFR DTC(C797S/T790M/Del19) Tumor volume Day 2” value [1, 6]?
**A.** The value was 133 mm^3.

**Q.** What about the “NCI-H1975 EGFR DTC(C797S/T790M/Del19) T/C Day 4” value [1, 6] of the same compound?
**A.** The value was 50.41%.

**Q.** And the “NCI-H1975 EGFR DTC(C797S/T790M/Del19) Tumor volume Day 4” value [1, 6]?
**A.** Its value is 177 mm^3.

**Q.** What about the “NCI-H1975 EGFR DTC(C797S/T790M/Del19) T/C Day 6” value [1, 6] of the same compound?
**A.** Its value is 39.48%.

**Q.** What about the “NCI-H1975 EGFR DTC(C797S/T790M/Del19) Tumor volume Day 6” value [1, 6] of the same compound?
**A.** The value was 217 mm^3.

**Q.** What about the “NCI-H1975 EGFR DTC(C797S/T790M/Del19) T/C Day 9” value [1, 6] of the same compound?
**A.** Its value is 24.87%.

**Q.** What about the “NCI-H1975 EGFR DTC(C797S/T790M/Del19) Tumor volume Day 9” value [1, 6] of the same compound?
**A.** Its value is 269 mm^3.

**Q.** And the “NCI-H1975 EGFR DTC(C797S/T790M/Del19) T/C Day 11” value [1, 6]?
**A.** The value was 22.07%.

**Q.** And the “NCI-H1975 EGFR DTC(C797S/T790M/Del19) Tumor volume Day 11” value [1, 6]?
**A.** The value was 308 mm^3.

**Q.** What about the “NCI-H1975 EGFR DTC(C797S/T790M/Del19) T/C Day 13” value [1, 6] of the same compound?
**A.** The value was 18.98%.

**Q.** And the “NCI-H1975 EGFR DTC(C797S/T790M/Del19) Tumor volume Day 13” value [1, 6]?
**A.** Its value is 327 mm^3.

**Q.** And the “NCI-H1975 EGFR DTC(C797S/T790M/Del19) T/C Day 16” value [1, 6]?
**A.** Its value is 14.36%.

**Q.** And the “NCI-H1975 EGFR DTC(C797S/T790M/Del19) Tumor volume Day 16” value [1, 6]?
**A.** The value was 385 mm^3.

**Q.** And the “Tumor volume Day 0” value [2, 7]?
**A.** The value was 109 mm^3.

**Q.** What about the “Relative tumor proliferation rate T/C Day 3” value [2, 7] of the same compound?
**A.** Its value is 59.22%.

**Q.** What about the “Tumor volume Day 3” value [2, 7] of the same compound?
**A.** The value was 87 mm^3.

**Q.** What about the “Relative tumor proliferation rate T/C Day 5” value [2, 7] of the same compound?
**A.** Its value is 34.07%.

**Q.** What about the “Tumor volume Day 5” value [2, 7] of the same compound?
**A.** The value was 62 mm^3.

**Q.** What about the “Relative tumor proliferation rate T/C Day 7” value [2, 7] of the same compound?
**A.** Its value is 10.38%.

**Q.** And the “Tumor volume Day 7” value [2, 7]?
**A.** The value was 41 mm^3.

**Q.** And the “Relative tumor proliferation rate T/C Day 10” value [2, 7]?
**A.** The value was 5.06%.

**Q.** What about the “Tumor volume Day 10” value [2, 7] of the same compound?
**A.** Its value is 31 mm^3.

**Q.** What about the “Relative tumor proliferation rate T/C Day 12” value [2, 7] of the same compound?
**A.** The value was 3.12%.

**Q.** And the “Tumor volume Day 12” value [2, 7]?
**A.** The value was 27 mm^3.

**Q.** And the “Tumor volume Day 14” value [2, 7]?
**A.** The value was 41 mm^3.

**Q.** What about the “Tumor volume Day 0” value [2, 8] of the same compound?
**A.** The value was 109 mm^3.

**Q.** And the “Relative tumor proliferation rate T/C Day 3” value [2, 8]?
**A.** The value was 44.97%.

**Q.** What about the “Tumor volume Day 3” value [2, 8] of the same compound?
**A.** The value was 67 mm^3.

**Q.** And the “Relative tumor proliferation rate T/C Day 5” value [2, 8]?
**A.** Its value is 24.07%.

**Q.** What about the “Tumor volume Day 5” value [2, 8] of the same compound?
**A.** The value was 44 mm^3.

**Q.** And the “Relative tumor proliferation rate T/C Day 7” value [2, 8]?
**A.** Its value is 7.97%.

**Q.** And the “Tumor volume Day 7” value [2, 8]?
**A.** The value was 32 mm^3.

**Q.** And the “Relative tumor proliferation rate T/C Day 10” value [2, 8]?
**A.** The value was 3.62%.

**Q.** And the “Tumor volume Day 10” value [2, 8]?
**A.** Its value is 22 mm^3.

**Q.** What about the “Relative tumor proliferation rate T/C Day 12” value [2, 8] of the same compound?
**A.** Its value is 1.91%.

**Q.** And the “Tumor volume Day 12” value [2, 8]?
**A.** Its value is 17 mm^3.

**Q.** And the “Tumor volume Day 14” value [2, 8]?
**A.** The value was 12 mm^3.

**Q.** What about the IC50 ([3]; first test, read-out: First test IC50) of the same compound?
**A.** The IC50 was 15.1 nM.

**Q.** And the IC50 ([3]; second test, read-out: Second test IC50)?
**A.** The IC50 was 10.4 nM.

**Q.** With `COc1cc(N2CCC(N3CCN(C)CC3)CC2)c(Cl)cc1Nc1ncc(Br)c(Nc2ccc(C)cc2P(C)(C)=O)n1` [Compound 14] as the compound, how does the IC50 [4] read?
**A.** Its IC50 is 65.9 nM.
